Where a name gives a salt, the structure may show the parent alone.

Assay [1] relates to multidrug resistant human epidermoid carcinoma (KBV1) cells. The experiment in a line: Growth inhibition of vinblastine-resistant KBV1 cells (reversal of multidrug resistance). It is filed as cell-based. How it is done:
The ability of compounds of this invention to reverse multi drug resistance can be determined using standard test procedures. The ability of the test compounds to inhibit the growth of multidrug resistant human epidermoid carcinoma (KBV1) cells in the presence of both Vinblastine and the compound was determined. […]

Assay [2] has the same test system. The assay is described as above. It is filed as cell-based. The source holds these as a separate data set.

Take `COc1ccc(CCN2CCCCC2CC(c2ccccc2)c2ccccc2)cc1OC` (stereo not shown) [1-(3,4-Dimethoxyphenethyl)-2-(2,2-diphenylethyl)piperidine Maleate]: the inhibition at 0.06 µM turned out to be 30.4% in assay [1] (KB-V1, compound 0.06 µM + VLB at 0.25 µg/ml) and 1% in assay [2] (Homo sapiens, KB-V1, compound alone, 0.06 µM). Besides, the inhibition at 0.12 µM in assay [1] (KB-V1, compound 0.12 µM + VLB at 0.25 µg/ml) was found to be 60%; in assay [2] (Homo sapiens, KB-V1, compound alone, 0.12 µM), 0%. The inhibition at 0.18 µM in assay [1] (KB-V1, compound 0.18 µM + VLB at 0.25 µg/ml) was 91.6%; in assay [2] (Homo sapiens, KB-V1, compound alone, 0.18 µM), 8.1%. In addition, the inhibition at 0.23 µM was found to be 94.2% in assay [1] (KB-V1, compound 0.23 µM + VLB at 0.25 µg/ml) and 12.2% in assay [2] (Homo sapiens, KB-V1, compound alone, 0.23 µM).
For `CC[C@]1(O)C[C@@H]2CN(CCc3c([nH]c4ccccc34)[C@@](C(=O)OC)(c3cc4c(cc3OC)N(C)[C@H]3[C@@](O)(C(=O)OC)[C@H](OC(C)=O)[C@]5(CC)C=CCN6CC[C@]43[C@@H]65)C2)C1` [Vinblastine, reference compound], the inhibition at 0.25 µg/mL in assay [2] (Homo sapiens, KB-V1, VLB at 0.25 µg/ml alone, read-out: growthinhibition) is 0 to 10%. Moreover, in assay [2] (Vinblastine (0.25 µg/ml) alone), the growth inhibition is on record as 0 - 10%.

(Values after patent publication EP0643693B1, “REVERSAL OF MULTI-DRUG RESISTANCE BY TRIPHENYL-PIPERIDINE DERIVATIVES” (MERRELL PHARMACEUTICALS INC., priority 1992, dated 1993).)
